In US6960614B2, “Oxygenated esters of 4-lodo phenylamino benzhydroxamic acids” (Warner-Lambert Company, priority 2000, dated 2005):

System: MEK
Assay: Cellular Assay for Measuring MEK Inhibition (inhibition of ERK phosphorylation in C26 cells, Western blot)
Type: cell-based, murine
Conditions: for % Inhibition @ 0.1 μM / % Inhibition @ 1 μM / % Inhibition @ 10 μM: ERK phosphorylation in C26 cells; for IC50: inhibition of ERK phosphorylation in murine colon 26 (C26) carcinoma cells, determined graphically from dose response curve
Procedure, shortened: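 Exponentially growing murine colon 26 (C26) carcinoma cells treated with varying compound concentrations at 37° C, then lysed. Western blot with antibody to dually phosphorylated ERK1/ERK2; blots stripped and re-probed for total ERK1/ERK2.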

## CC(C)(O)CONC(=O)c1cc(F)c(F)c(F)c1Nc1ccc(I)cc1Cl [Example 170, 2-(2-Chloro-4-iodo-phenylamino)-3,4,5-trifluoro-N-(2-hydroxy-2-methyl-propoxy)-benzamide]
  % Inhibition @ 0.1 μM: 19%
  % Inhibition @ 1 μM: 85.7%

## Cc1cc(I)ccc1Nc1c(C(=O)NOCC(C)(C)O)cc(F)c(F)c1F [Example 171, 3,4,5-Trifluoro-N-(2-hydroxy-2-methyl-propoxy)-2-(4-iodo-2-methyl-phenylamino)-benzamide]
  % Inhibition @ 0.1 μM: 35.6%
  % Inhibition @ 1 μM: 94.6%

## Cc1cc(I)ccc1Nc1c(C(=O)NOCC(C)(C)O)cc(Br)c(F)c1F [Example 172, 5-Bromo-3,4-difluoro-N-(2-hydroxy-2-methyl-propoxy)-2-(4-iodo-2-methyl-phenylamino)-benzamide]
  % Inhibition @ 0.1 μM: 41.9%
  % Inhibition @ 1 μM: 92.9%

## CC(C)(O)CONC(=O)c1cc(Br)c(F)c(F)c1Nc1ccc(I)cc1Cl [Example 173, 5-Bromo-2-(2-chloro-4-iodo-phenylamino)-3,4-difluoro-N-(2-hydroxy-2-methyl-propoxy)-benzamide]
  IC50: 300 nM

## Cc1cc(I)ccc1Nc1c(C(=O)NOCC(C)(C)O)ccc(F)c1F [Example 174, 3,4-Difluoro-N-(2-hydroxy-2-methyl-propoxy)-2-(4-iodo-2-methyl-phenylamino)-benzamide]
  IC50: 100 nM

## CC(C)(O)CONC(=O)c1cc(Cl)c(F)c(F)c1Nc1ccc(I)cc1Cl [Example 175, 5-Chloro-2-(2-chloro-4-iodo-phenylamino)-3,4-difluoro-N-(2-hydroxy-2-methyl-propoxy)-benzamide]
  IC50: 180 nM

## Cc1cc(I)ccc1Nc1c(C(=O)NOCC(C)(C)O)cc(Cl)c(F)c1F [Example 176, 5-Chloro-3,4-difluoro-N-(2-hydroxy-2-methyl-propoxy)-2-(4-iodo-2-methyl-phenylamino)-benzamide]
  % Inhibition @ 0.1 μM: 14.1%
  % Inhibition @ 1 μM: 87.7%

## CC(C)(O)CONC(=O)c1ccc(F)c(F)c1Nc1ccc(I)cc1F [Example 177, 3,4-Difluoro-2-(2-fluoro-4-iodo-phenylamino)-N-(2-hydroxy-2-methyl-propoxy)-benzamide]
  % Inhibition @ 0.1 μM: 91.6%
  % Inhibition @ 1 μM: 95.7%

## CC(C)(O)CONC(=O)c1cc(Br)c(F)c(F)c1Nc1ccc(I)cc1F [Example 178, 5-Bromo-3,4-difluoro-2-(2-fluoro-4-iodo-phenylamino)-N-(2-hydroxy-2-methyl-propoxy)-benzamide]
  % Inhibition @ 0.1 μM: 61.8%
  % Inhibition @ 1 μM: 94.9%

## CC(C)(O)CONC(=O)c1cc(Cl)c(F)c(F)c1Nc1ccc(I)cc1F [Example 179, 5-Chloro-3,4-difluoro-2-(2-fluoro-4-iodo-phenylamino)-N-(2-hydroxy-2-methyl-propoxy)-benzamide]
  % Inhibition @ 0.1 μM: 90.4%
  % Inhibition @ 1 μM: 99.3%

## CC(C)(O)CONC(=O)c1cc(Cl)c(F)c(F)c1Nc1ccc(F)cc1F [Example 180, 5-Chloro-2-(2,4-difluoro-phenylamino)-3,4-difluoro-N-(2-hydroxy-2-methyl-propoxy)-benzamide]
  % Inhibition @ 1 μM: 34%
  % Inhibition @ 10 μM: 58.6%

## CC(C)(O)CONC(=O)c1ccc(F)c(F)c1Nc1ccc(F)cc1F [Example 181, 2-(2,4-Difluoro-phenylamino)-3,4-difluoro-N-(2-hydroxy-2-methyl-propoxy)-benzamide]
  % Inhibition @ 1 μM: 0%
  % Inhibition @ 10 μM: 65.1%

## CC(C)(O)CONC(=O)c1ccc(F)c(F)c1Nc1ccc(Br)cc1F [Example 182, 2-(4-Bromo-2-fluoro-phenylamino)-3,4-difluoro-N-(2-hydroxy-2-methyl-propoxy)-benzamide]
  % Inhibition @ 0.1 μM: 13.1%
  % Inhibition @ 1 μM: 81.9%

## O=C(NOCC(O)COc1ccccc1)c1ccc(F)c(F)c1Nc1ccc(I)cc1Cl (stereo not drawn) [Example 183]
  IC50: 53 nM
